Counter-ions that a name gives are not always drawn.
Columns and labels:
Assay in all cases: isoTOP-ABPP of compound-treated primary human T cells
Format in all cases: cell-based
[1] = biological target: Cys residues in primary human T cells (Homo sapiens, UniProt O14933); settings: UBE2L6 C98 (O14933)
[2] = biological target: Cys residues in primary human T cells (Homo sapiens, UniProt Q14005); settings: IL16 C1004 (Q14005)
[3] = biological target: Cys residues in primary human T cells (Homo sapiens, UniProt Q5T4S7); settings: UBR4 C2554 (Q5T4S7)
[4] = biological target: T1, Cys residues in primary human T cells (Homo sapiens, UniProt Q6IA69); settings: NADSYN1 C428 (Q6IA69)
T1 sequence (Q6IA69 1-706): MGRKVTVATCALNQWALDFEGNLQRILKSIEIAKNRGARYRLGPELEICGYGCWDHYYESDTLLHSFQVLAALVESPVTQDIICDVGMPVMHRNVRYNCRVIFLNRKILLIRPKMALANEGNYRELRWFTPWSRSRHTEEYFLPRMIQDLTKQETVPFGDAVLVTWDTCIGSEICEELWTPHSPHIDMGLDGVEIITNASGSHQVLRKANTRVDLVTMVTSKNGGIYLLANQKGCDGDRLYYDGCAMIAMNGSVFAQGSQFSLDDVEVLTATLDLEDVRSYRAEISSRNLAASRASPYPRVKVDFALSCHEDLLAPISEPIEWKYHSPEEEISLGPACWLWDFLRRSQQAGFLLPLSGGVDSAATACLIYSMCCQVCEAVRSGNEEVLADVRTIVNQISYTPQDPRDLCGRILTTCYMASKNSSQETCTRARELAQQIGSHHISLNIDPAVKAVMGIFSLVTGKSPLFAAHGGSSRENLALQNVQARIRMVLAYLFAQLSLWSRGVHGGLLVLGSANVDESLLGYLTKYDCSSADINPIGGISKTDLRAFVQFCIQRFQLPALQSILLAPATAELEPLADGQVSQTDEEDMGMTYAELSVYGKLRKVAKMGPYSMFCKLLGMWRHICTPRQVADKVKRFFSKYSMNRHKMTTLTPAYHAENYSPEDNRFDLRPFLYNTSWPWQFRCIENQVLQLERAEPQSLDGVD

[5] = biological target: Cys residues in primary human T cells (Homo sapiens, UniProt Q7Z2W4); settings: ZC3HAV1 C645 (Q7Z2W4)
[6] = biological target: Cys residues in primary human T cells (Homo sapiens, UniProt Q7Z4W1); settings: DCXR C244 (Q7Z4W1)
[7] = biological target: Cys residues in primary human T cells (Homo sapiens, UniProt Q86YS7); settings: KIAA0528 C993 (Q86YS7)
[8] = biological target: Cys residues in primary human T cells (Homo sapiens, UniProt Q8WXH0); settings: SYNE2 C553 (Q8WXH0)
[9] = biological target: T2, Cys residues in primary human T cells (Homo sapiens, UniProt Q9NRW3); settings: APOBEC3C C130 (Q9NRW3)
T2 sequence (Q9NRW3 1-190): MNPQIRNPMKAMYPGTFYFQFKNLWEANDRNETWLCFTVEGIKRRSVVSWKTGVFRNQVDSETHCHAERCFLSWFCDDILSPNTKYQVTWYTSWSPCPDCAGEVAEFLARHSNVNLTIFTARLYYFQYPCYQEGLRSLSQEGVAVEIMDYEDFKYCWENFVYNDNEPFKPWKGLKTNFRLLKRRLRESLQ

[10] = biological target: T3, Cys residues in primary human T cells (Homo sapiens, UniProt Q9Y6C9); settings: MTCH2 C296 (Q9Y6C9)
T3 sequence (Q9Y6C9 1-303): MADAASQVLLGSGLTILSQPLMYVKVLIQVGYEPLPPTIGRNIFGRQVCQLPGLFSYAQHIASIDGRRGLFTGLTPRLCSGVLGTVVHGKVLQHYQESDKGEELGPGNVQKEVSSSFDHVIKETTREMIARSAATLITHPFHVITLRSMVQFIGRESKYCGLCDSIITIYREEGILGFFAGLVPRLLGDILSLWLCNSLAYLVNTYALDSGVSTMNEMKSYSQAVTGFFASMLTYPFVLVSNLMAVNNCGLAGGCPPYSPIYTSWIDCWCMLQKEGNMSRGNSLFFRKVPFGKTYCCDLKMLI

Chain of Cys residues in primary human T cells (Homo sapiens, UniProt Q14005) (Q14005 whole entry): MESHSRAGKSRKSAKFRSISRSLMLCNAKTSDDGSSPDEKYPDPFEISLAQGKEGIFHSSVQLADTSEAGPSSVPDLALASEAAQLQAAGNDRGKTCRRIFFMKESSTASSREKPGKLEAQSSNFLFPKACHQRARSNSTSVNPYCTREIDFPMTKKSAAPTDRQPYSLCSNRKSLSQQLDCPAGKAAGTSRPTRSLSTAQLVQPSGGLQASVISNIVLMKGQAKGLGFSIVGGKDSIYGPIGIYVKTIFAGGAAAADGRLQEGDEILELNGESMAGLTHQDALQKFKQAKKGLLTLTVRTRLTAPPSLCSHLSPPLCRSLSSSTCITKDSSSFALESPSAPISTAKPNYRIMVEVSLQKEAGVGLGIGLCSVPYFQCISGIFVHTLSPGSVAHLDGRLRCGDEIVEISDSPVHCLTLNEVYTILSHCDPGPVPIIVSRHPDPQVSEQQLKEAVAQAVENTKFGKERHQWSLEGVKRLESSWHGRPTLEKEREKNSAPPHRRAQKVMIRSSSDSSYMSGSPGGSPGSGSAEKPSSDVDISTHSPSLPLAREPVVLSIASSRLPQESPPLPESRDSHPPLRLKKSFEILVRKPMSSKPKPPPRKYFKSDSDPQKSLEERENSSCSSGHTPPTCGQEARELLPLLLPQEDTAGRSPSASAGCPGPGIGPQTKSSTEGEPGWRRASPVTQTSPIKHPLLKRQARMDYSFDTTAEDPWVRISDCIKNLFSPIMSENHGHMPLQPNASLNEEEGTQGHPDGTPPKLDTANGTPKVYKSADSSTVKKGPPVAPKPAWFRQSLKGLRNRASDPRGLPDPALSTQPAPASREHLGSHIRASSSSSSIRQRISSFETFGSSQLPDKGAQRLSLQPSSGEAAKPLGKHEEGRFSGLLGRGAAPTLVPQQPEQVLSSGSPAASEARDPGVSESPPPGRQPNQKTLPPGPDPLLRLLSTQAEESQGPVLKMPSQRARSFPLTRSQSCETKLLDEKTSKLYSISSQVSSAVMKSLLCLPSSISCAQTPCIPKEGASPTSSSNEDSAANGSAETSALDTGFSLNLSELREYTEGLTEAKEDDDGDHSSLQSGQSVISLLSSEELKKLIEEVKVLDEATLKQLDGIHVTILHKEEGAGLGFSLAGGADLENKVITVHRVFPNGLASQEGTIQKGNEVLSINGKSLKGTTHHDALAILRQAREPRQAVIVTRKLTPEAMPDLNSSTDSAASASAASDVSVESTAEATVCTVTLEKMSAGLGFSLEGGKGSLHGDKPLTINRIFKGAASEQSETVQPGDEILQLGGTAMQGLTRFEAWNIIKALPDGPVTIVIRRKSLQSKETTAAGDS
Chain of Cys residues in primary human T cells (Homo sapiens, UniProt O14933) (O14933 whole entry): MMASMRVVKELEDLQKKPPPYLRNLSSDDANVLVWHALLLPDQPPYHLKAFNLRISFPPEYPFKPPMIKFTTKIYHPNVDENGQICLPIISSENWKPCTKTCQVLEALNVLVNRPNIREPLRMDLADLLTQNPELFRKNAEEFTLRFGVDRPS
Chain of Cys residues in primary human T cells (Homo sapiens, UniProt Q7Z4W1) (Q7Z4W1 whole entry): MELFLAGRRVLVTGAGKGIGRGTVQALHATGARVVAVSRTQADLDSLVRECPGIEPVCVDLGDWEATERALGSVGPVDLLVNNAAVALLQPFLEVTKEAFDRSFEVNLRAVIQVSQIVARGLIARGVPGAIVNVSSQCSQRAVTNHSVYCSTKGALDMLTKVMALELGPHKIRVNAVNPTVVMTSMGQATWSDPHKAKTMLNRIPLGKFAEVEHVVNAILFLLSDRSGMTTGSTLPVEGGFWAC
Chain of Cys residues in primary human T cells (Homo sapiens, UniProt Q7Z2W4) (Q7Z2W4 whole entry): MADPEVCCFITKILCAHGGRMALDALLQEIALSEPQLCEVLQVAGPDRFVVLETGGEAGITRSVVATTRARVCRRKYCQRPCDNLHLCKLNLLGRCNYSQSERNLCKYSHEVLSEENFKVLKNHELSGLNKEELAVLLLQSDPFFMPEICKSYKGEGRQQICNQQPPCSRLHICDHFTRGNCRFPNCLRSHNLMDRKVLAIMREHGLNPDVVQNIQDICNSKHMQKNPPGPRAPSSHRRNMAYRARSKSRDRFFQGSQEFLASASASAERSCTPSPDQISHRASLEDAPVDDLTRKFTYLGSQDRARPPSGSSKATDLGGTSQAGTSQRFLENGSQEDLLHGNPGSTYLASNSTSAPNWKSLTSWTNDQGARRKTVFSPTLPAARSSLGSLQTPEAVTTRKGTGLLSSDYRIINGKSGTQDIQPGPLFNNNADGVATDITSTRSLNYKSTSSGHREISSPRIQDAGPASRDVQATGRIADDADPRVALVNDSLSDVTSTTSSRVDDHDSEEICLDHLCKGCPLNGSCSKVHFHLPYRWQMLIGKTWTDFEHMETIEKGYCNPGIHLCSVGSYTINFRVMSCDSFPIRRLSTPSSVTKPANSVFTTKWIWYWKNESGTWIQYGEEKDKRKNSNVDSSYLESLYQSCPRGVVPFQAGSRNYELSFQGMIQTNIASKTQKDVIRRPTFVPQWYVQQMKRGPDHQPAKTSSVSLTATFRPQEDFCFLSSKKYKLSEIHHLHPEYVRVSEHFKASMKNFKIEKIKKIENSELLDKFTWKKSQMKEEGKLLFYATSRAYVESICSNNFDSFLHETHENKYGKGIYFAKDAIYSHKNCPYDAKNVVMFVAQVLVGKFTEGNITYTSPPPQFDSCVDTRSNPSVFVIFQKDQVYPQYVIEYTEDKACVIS
Chain of Cys residues in primary human T cells (Homo sapiens, UniProt Q86YS7) (Q86YS7 whole entry): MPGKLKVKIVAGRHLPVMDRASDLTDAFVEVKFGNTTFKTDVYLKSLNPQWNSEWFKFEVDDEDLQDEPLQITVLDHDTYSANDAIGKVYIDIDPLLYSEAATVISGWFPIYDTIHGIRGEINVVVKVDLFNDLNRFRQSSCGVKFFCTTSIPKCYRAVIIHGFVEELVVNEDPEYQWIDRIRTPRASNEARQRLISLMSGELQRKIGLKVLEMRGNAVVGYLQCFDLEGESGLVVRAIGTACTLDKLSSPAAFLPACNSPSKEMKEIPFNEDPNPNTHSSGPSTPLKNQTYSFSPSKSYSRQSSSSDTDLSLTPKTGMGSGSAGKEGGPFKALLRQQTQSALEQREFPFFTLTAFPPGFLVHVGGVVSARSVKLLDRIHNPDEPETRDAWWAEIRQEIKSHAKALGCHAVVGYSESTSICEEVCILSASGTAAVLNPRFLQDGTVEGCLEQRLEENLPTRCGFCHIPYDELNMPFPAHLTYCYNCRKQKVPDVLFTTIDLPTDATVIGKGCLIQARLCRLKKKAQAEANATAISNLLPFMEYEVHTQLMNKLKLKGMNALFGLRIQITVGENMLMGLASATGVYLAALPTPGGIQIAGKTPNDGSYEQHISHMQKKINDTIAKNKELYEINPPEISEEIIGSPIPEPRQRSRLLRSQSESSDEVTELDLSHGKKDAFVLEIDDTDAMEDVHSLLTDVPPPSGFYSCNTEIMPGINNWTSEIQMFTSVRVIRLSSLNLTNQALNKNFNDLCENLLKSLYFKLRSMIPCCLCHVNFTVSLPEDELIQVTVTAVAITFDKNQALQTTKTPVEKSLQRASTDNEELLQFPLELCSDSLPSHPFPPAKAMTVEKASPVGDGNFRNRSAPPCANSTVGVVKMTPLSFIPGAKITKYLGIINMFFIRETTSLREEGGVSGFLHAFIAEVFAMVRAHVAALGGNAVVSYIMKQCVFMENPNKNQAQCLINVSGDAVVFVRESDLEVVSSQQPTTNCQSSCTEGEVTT

Compound: COC(=O)/C=C/C(=O)OC [DMF, dimethyl fumarate]
- R value (DMSO/DMF) ([1]; DMF 10 μM 4h): 1.49
- R value (DMSO/DMF) ([1]; DMF 50 μM 1h): 2.44
- R value (DMSO/DMF) ([1]; DMF 50 μM 2h): 2.92
- R value (DMSO/DMF) ([1]; DMF 50 μM 4h): 12.55
- R value (DMSO/DMF) ([2]; DMF 10 μM 4h): 1.37
- R value (DMSO/DMF) ([2]; DMF 50 μM 1h): 1.95
- R value (DMSO/DMF) ([2]; DMF 50 μM 2h): 3.32
- R value (DMSO/DMF) ([2]; DMF 50 μM 4h): 4.13
- R value (DMSO/DMF) ([3]; DMF 10 μM 4h): 1.52
- R value (DMSO/DMF) ([3]; DMF 50 μM 1h): 1.6
- R value (DMSO/DMF) ([3]; DMF 50 μM 2h): 2.1
- R value (DMSO/DMF) ([3]; DMF 50 μM 4h): 4.63
- R value (DMSO/DMF) ([4]; DMF 10 μM 4h): 1.43
- R value (DMSO/DMF) ([4]; DMF 50 μM 1h): 1.81
- R value (DMSO/DMF) ([4]; DMF 50 μM 2h): 2.31
- R value (DMSO/DMF) ([4]; DMF 50 μM 4h): 20
- R value (DMSO/DMF) ([5]; DMF 10 μM 4h): 1.46
- R value (DMSO/DMF) ([5]; DMF 25 μM 4h): 2.52
- R value (DMSO/DMF) ([5]; DMF 50 μM 1h): 2.36
- R value (DMSO/DMF) ([5]; DMF 50 μM 2h): 3.13
- R value (DMSO/DMF) ([5]; DMF 50 μM 4h): 6.28
- R value (DMSO/DMF) ([6]; DMF 10 μM 4h): 2.3
- R value (DMSO/DMF) ([6]; DMF 50 μM 1h): 1.29
- R value (DMSO/DMF) ([6]; DMF 50 μM 2h): 2.76
- R value (DMSO/DMF) ([6]; DMF 50 μM 4h): 4.24
- R value (DMSO/DMF) ([7]; DMF 10 μM 4h): 1.4
- R value (DMSO/DMF) ([7]; DMF 50 μM 4h): 4.38
- R value (DMSO/DMF) ([8]; DMF 10 μM 4h): 1.61
- R value (DMSO/DMF) ([8]; DMF 50 μM 2h): 3.29
- R value (DMSO/DMF) ([8]; DMF 50 μM 4h): 4.05
- R value (DMSO/DMF) ([9]; DMF 10 μM 4h): 1.92
- R value (DMSO/DMF) ([9]; DMF 50 μM 1h): 8.6
- R value (DMSO/DMF) ([9]; DMF 50 μM 2h): 20
- R value (DMSO/DMF) ([9]; DMF 50 μM 4h): 20
- R value (DMSO/DMF) ([10]; DMF 10 μM 4h): 1.68
- R value (DMSO/DMF) ([10]; DMF 50 μM 1h): 1.81
- R value (DMSO/DMF) ([10]; DMF 50 μM 2h): 2.44
- R value (DMSO/DMF) ([10]; DMF 50 μM 4h): 4.3
